Measurements as given in PMC9798004 (Frontiers in Psychiatry, 2022).
No end group written: not given here.

Key:
CB1 = tested on: CB1; design: method as in PMID 20599795; details: 10 nM, 15 min application; not recovered up to 5 h later; cited from earlier work
LTB4R = target: T1, LTB4R (Homo sapiens, UniProt Q15722); experiment: PathHunter β-arrestin assay; format: cell-based; details: screen, control agonist; CHO, 37C, 2HR
T1 construct: purchased Eurofins DiscoverX (PathHunter gpcrMAX)

ADORA3 = target: T2, ADORA3 (Homo sapiens, UniProt P0DMS8); experiment: PathHunter β-arrestin assay; format: cell-based; details: follow-up assays, control antagonist
T2 construct: host or cells: CHO

NMU1R = target: T3, NMU1R (Homo sapiens, UniProt Q9HB89); experiment: PathHunter β-arrestin assay; format: cell-based; details: screen, control agonist; U2OS, 37C, 2HR
T3 construct: purchased Eurofins DiscoverX (PathHunter gpcrMAX)
T3 sequence (Q9HB89 1-426): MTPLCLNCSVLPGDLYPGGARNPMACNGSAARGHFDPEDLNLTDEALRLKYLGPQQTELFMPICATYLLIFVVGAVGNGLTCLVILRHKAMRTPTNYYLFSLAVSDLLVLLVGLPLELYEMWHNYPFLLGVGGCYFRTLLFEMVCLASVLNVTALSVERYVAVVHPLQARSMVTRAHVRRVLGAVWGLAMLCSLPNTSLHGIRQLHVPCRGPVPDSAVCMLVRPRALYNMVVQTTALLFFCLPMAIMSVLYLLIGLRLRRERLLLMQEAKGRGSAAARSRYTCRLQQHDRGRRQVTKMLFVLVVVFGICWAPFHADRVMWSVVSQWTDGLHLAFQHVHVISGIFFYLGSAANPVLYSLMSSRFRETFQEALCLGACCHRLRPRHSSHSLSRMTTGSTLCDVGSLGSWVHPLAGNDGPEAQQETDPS

MLNR = target: T4, MLNR (Homo sapiens, UniProt O43193); experiment: PathHunter β-arrestin assay; format: cell-based; details: screen, control agonist; CHO, 37C, 2HR
T4 construct: purchased Eurofins DiscoverX (PathHunter gpcrMAX)

MCHR2 = target: T5, MCHR2 (Homo sapiens, UniProt Q969V1); experiment: PathHunter β-arrestin assay; format: cell-based; details: screen, control agonist; U2OS, 37C, 2HR
T5 construct: purchased Eurofins DiscoverX (PathHunter gpcrMAX)

NPFFR1 = target: T6, NPFFR1 (Homo sapiens, UniProt Q9GZQ6); experiment: PathHunter β-arrestin assay; format: cell-based; details: screen, control agonist; CHO, 37C, 2HR
T6 construct: purchased Eurofins DiscoverX (PathHunter gpcrMAX)

HCRTR2 = HCRTR2 (Homo sapiens, UniProt O43614); experiment: PathHunter β-arrestin assay; format: cell-based; details: follow-up assays, control antagonist
HCRTR1 = target: T7, HCRTR1 (Homo sapiens, UniProt O43613); experiment: PathHunter β-arrestin assay; format: cell-based; details: follow-up assays, control antagonist
T7 sequence (O43613 1-425): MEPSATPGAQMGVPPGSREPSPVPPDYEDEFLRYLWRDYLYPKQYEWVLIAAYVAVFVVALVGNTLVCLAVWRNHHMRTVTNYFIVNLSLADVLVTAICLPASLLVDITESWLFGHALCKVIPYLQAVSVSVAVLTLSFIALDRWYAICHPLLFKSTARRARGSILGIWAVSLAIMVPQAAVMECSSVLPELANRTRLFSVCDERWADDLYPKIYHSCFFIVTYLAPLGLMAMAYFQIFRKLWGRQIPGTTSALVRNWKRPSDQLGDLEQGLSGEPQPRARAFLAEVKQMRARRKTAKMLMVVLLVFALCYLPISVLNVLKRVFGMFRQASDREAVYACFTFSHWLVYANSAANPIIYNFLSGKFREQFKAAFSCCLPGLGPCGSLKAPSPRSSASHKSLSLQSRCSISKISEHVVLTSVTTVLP
Procedure: (§1) Follow up experiments were prioritized based on the difference between S/N and CoV. Targets with a >5-fold difference between S/N and CoV were investigated for their potential contribution to the AMB-FUBINACA toxidrome with 10-point concentration-response curves generated in technical replicate (range 1.5–30 μM) using the EC80 of the relevant agonist, where applicable in antagonist mode. Simultaneous agonist and antagonist curves were run in parallel to ensure reliability of the assay (see Supplementary Table 2), with both RC50 and signal to background aligning with historical averages, and Z' >0.5. RC50 was estimated using a four-parameter fit (CBIS Data Analysis Suite, ChemInnovation, San Diego, CA) on normalized data.

MTNR1A = target: T8, MTNR1A (Homo sapiens, UniProt P48039); experiment: PathHunter β-arrestin assay; format: cell-based; details: screen, control agonist; CHO, 37C, 2HR
T8 construct: purchased Eurofins DiscoverX (PathHunter gpcrMAX)

CCR10 = target: T9, CCR10 (Homo sapiens, UniProt P46092); experiment: PathHunter β-arrestin assay; format: cell-based; details: control agonist
T9 sequence (P46092 1-362): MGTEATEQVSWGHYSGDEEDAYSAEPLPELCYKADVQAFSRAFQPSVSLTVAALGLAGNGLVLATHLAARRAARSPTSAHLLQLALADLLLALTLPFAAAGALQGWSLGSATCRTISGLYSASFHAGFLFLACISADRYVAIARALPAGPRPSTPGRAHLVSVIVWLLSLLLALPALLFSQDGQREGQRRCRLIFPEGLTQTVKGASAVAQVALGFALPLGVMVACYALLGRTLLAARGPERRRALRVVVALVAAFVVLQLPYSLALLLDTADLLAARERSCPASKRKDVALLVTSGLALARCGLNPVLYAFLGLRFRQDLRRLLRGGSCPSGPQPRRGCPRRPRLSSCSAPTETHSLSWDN
Procedure: as §1

T5 sequence (Q969V1 whole entry): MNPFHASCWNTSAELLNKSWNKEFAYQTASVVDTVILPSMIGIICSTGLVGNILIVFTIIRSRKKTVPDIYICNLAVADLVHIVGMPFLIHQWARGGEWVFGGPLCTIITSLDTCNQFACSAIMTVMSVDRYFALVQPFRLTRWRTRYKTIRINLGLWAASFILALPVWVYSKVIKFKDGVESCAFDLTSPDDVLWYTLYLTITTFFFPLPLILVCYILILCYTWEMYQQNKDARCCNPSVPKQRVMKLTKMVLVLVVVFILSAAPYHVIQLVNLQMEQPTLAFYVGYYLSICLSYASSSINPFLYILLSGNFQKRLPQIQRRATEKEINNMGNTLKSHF
T8 sequence (P48039 whole entry): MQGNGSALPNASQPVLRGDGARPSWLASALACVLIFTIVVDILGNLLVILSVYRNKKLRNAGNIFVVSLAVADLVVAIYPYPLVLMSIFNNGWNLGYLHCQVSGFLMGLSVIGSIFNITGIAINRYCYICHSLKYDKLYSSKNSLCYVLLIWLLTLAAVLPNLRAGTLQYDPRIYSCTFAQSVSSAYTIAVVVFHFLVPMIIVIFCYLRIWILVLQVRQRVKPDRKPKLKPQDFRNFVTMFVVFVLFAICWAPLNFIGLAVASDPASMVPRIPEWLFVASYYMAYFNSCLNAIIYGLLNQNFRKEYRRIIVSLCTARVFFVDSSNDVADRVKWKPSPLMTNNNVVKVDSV
T6 sequence (Q9GZQ6 whole entry): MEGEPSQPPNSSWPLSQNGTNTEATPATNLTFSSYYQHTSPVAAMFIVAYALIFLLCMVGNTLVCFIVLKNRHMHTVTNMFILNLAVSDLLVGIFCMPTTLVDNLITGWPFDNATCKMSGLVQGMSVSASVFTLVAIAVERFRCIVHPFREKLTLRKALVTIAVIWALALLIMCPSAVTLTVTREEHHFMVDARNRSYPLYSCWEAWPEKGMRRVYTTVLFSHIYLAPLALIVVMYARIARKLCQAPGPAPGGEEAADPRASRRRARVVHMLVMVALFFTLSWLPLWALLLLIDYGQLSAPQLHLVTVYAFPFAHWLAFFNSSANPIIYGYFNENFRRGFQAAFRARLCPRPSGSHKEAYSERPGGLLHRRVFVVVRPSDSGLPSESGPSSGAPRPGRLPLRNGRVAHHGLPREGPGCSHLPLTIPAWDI
Sequence of HCRTR2 (O43614 whole entry): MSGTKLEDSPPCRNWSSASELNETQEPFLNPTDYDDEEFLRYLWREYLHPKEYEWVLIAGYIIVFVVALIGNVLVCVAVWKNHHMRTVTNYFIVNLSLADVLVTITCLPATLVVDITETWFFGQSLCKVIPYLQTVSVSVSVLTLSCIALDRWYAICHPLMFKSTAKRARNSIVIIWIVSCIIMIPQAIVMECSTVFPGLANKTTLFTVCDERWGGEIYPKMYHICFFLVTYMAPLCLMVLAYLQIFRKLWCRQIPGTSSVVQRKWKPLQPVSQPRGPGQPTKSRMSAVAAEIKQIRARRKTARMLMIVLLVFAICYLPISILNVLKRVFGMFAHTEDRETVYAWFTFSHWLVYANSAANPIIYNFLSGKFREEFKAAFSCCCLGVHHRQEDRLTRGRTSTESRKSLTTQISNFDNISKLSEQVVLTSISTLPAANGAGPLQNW
T2 sequence (P0DMS8 whole entry): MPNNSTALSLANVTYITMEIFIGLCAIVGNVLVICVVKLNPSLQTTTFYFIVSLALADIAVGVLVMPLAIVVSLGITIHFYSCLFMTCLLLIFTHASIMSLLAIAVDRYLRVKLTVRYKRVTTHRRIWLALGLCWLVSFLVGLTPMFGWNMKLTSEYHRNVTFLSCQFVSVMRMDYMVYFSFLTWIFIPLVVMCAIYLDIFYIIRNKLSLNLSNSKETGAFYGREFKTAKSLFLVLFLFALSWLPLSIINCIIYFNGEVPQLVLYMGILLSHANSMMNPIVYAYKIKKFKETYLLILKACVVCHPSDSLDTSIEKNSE
T4 sequence (O43193 whole entry): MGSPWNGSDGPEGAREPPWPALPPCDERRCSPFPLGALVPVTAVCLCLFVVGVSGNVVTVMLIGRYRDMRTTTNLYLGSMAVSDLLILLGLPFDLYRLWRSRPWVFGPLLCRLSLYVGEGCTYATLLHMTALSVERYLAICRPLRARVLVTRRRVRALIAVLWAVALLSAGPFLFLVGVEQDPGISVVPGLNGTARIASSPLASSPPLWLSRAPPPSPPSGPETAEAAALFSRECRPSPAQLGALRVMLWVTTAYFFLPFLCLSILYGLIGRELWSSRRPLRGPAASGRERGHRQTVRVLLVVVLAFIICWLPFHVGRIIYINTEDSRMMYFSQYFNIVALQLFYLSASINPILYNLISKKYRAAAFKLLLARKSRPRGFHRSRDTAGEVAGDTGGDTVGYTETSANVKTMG
T1 sequence (Q15722 whole entry): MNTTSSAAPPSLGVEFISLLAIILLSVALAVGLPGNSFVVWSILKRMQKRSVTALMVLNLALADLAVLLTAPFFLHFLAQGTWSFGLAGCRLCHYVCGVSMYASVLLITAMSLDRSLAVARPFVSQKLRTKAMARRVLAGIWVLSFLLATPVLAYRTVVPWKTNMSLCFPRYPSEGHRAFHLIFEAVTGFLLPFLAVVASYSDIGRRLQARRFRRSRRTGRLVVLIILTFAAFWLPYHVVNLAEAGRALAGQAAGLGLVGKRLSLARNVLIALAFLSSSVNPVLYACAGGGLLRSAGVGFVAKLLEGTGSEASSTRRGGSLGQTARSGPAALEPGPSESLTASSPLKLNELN

CCCCCCC(C)(C)c1cc(O)c2c(c1)OC(C)(C)[C@@H]1CC=C(CO)C[C@@H]21 [HU210]
CB1 internalization (CB1): near maximal internalization

CCCCC/C=C\C[C@@H](O)/C=C/C=C/C=C\[C@@H](O)CCCC(=O)O [Leukotriene B4]
EC80 (LTB4R): 0.456 µM

COc1ccccc1NC(=O)Nc1nc(-c2cccnc2)nc2ccccc12 [VUF 5574]
IC50 (ADORA3): 0.00373 µM

Neuromedin U-25 (FRVDEEFQSPFASQSRGYFLFRPRN; ends and bridges not checked; UniProt P48645 142-166, looked up) [control agonist]
EC80 (NMU1R): 0.00363 µM

Motilin
EC80 (MLNR): 0.00569 µM

MCH: control agonist for MCHR1 and MCHR2
EC80 (MCHR2): 0.0593 µM

RFRP-3
EC80 (NPFFR1): 0.148 µM

Cc1cc(NC(=O)Nc2ccc(N(C)C)cc2)c2cc(F)cc(F)c2n1 [SB 408124]
IC50 (HCRTR2): 11.5 µM | IC50 (HCRTR1): 0.0744 µM

COc1ccc2[nH]c(I)c(CCNC(C)=O)c2c1 [2-Iodomelatonin]
EC80 (MTNR1A): 0.00277 µM

B1: CCL27: control agonist (protein, UniProt Q9Y4X3 25-112, looked up)
C-C motif chemokine 27: FLLPPSTACCTQLYRKPLSDKLLRKVIQVELQEADGDCHLQAFVLHLAQRSICIHPQNPSLSQWFEHQERKLHGTLPKLNFGMLRKMG
EC80 (CCR10; follow-up concentration-response assays): 0.09049 µM | EC80 (CCR10; screen, U2OS, 37C, 2HR): 0.0302 µM
